In PubChem BioAssay (NCI):
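Interpolation was linear, between the two tested concentrations surrounding the appropriate level; five concentrations were tested over 48 hours in 96-well plates. Abbreviation: GI50, concentration required for 50% inhibition of growth. Definition used: TGI = concentration required for complete inhibition of growth.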

Tests used:
Assay in all cases: inhibition of tumour cell growth, NCI panel, 48 h
COLO 205 colon = system: COLO 205 colon
NCI-H522 lung = system: NCI-H522 lung
HT29 colon = system: HT29 colon
NCI-H23 lung = system: NCI-H23 lung
HCT-116 colon = system: HCT-116 colon
RXF 393 renal = system: RXF 393 renal
A549 NSCLC = system: A549 NSCLC
HS 578T breast = system: HS 578T breast
UACC-62 melanoma = system: UACC-62 melanoma
NCI-H226 lung = system: NCI-H226 lung

SMILES | TGI (COLO 205 colon) [µM] | TGI (NCI-H522 lung) [µM] | TGI (HT29 colon) [µM] | TGI (NCI-H23 lung) [µM] | TGI (HCT-116 colon) [µM] | TGI (RXF 393 renal) [µM] | TGI (A549 NSCLC) [µM] | TGI (HS 578T breast) [µM] | TGI (UACC-62 melanoma) [µM] | TGI (NCI-H226 lung) [µM] | GI50 (COLO 205 colon) [µM] | GI50 (NCI-H522 lung) [µM] | GI50 (NCI-H23 lung) [µM] | GI50 (RXF 393 renal) [µM] | GI50 (NCI-H226 lung) [µM] | GI50 (HT29 colon) [µM] | GI50 (HCT-116 colon) [µM] | GI50 (A549 NSCLC) [µM] | GI50 (HS 578T breast) [µM] | GI50 (UACC-62 melanoma) [µM]
COC(=O)c1c(OC(C)=O)ccc2c1c1c(OC(C)=O)c3ccccc3c(OC(C)=O)c1n2Cc1cc(OC)cc(OC)c1 | > 100 | 9.2 | > 100 | > 100 | 78.3 | > 100 | > 100 | > 100 | > 100 | > 100 |  |  |  |  |  |  |  |  |  | 
COCn1c(C)c(C)c2c(=O)oc(=O)[nH]c21 | > 100 | > 100 | > 100 | > 100 | > 100 | > 100 | > 100 | > 100 | > 100 | > 100 |  |  |  |  |  |  |  |  |  | 
Cc1oc2nc1C(=O)NCc1nc(cs1)C(=O)N[C@H](C(C)C)c1nc(cs1)C(=O)N[C@H]2C | > 100 | 87.4 | > 100 | > 100 | > 100 | > 100 | > 100 | > 100 | > 100 | > 100 |  |  |  |  |  |  |  |  |  | 
Nc1ccc2c(c1)C1Oc3ccccc3CC1CO2 (stereo not drawn) | > 100 | > 100 | > 100 | > 100 | > 100 |  | > 100 |  | > 100 | > 100 |  |  |  |  |  |  |  |  |  | 
Cc1cc(O)c(C(C)C)cc1NC(=O)Nc1cccc2ccccc12 |  | 54.1 | 36.1 | 46.3 | 36.6 | 29.4 | 45.4 | 62.6 | 25.9 | 46.7 |  |  |  |  |  |  |  |  |  | 
Cc1c(CNc2ccc(Cl)c(C(=O)NC(CC(=O)O)C(=O)O)c2)ccc2nc(N)nc(N)c12 (stereo not drawn) | > 1000 | 682 | > 1000 | > 1000 | > 1000 | > 1000 | > 1000 | > 1000 | > 1000 | > 1000 | 114 | 211 | 0.357 | > 1000 | > 1000 |  |  |  |  | 
CCCCC/C=C1/CC(CO)(COC(=O)CC(C(C)C)C(C)C)OC1=O (stereo not drawn) | 14.7 | 29.9 | 34.9 | 31.7 | 28 | 29.8 | 27.1 | 9.09 | 29.6 | 24.9 |  |  |  |  |  |  |  |  |  | 
C=CCNC1=C2C[C@@H](C)C[C@@H](OC)C(OC(=O)CCCN(C)C)[C@H](C)/C=C(\C)[C@@H](OC(N)=O)[C@H](OC)/C=C\C=C(/C)C(=O)NC(=CC1=O)C2=O (stereo partly drawn) | 6.5 | 20.5 | 12.1 | 20.8 | 20.4 | 18.6 | 14.6 | 41.7 | 26 | 29.4 |  |  |  |  |  |  |  |  |  | 
COc1ccc2oc(S(=O)(=O)N3CC(CCl)c4ccc([N+](=O)[O-])cc43)cc2c1 (stereo not drawn) | 0.322 | 0.246 | 68 | > 24 | 4.22 |  | 18.1 | > 100 | > 37.6 | 1.43 |  |  |  |  |  |  |  |  |  | 
C=Nc1ccc([N+](=O)[O-])cc1 | > 100 | > 100 | > 100 | > 100 | > 100 |  | > 100 |  | > 100 | > 100 |  |  |  |  |  |  |  |  |  | 
CCOC(=O)C1=CN=C2C(=O)N(c3ccccc3)N(C)C2(C)C1=N (stereo not drawn) | > 100 | > 100 |  | > 100 | > 100 | > 100 | > 100 |  | > 100 | > 100 |  |  |  |  |  |  |  |  |  | 
C(=N\Nc1ncc(-c2cc3cc4c(cc3o2)OCO4)s1)/c1c[nH]c2ccccc12 |  |  | > 100 | 5.19 | 10.2 | 2.78 | 3.1 | 6.02 | 3.72 |  |  |  | 1.77 | 1.33 |  | 3.32 | 2.13 | 0.487 | 2.02 | 1.75
O=S(=O)(c1ccccc1)n1c(C(O)c2ccncc2)cc2ccccc21 (stereo not drawn) | > 100 |  | > 100 | > 100 | > 100 | > 100 | > 100 |  | 98.9 | > 100 |  |  |  |  |  |  |  |  |  | 
COC(=O)C1=C(C)N2CCCOC2(C)C(C(=O)OC)C1c1cccc(Cl)c1 (stereo not drawn) | 37.9 |  | 56.2 | > 100 | > 100 | > 100 | > 100 |  | 36.5 | 59.6 |  |  |  |  |  |  |  |  |  | 
CCNc1nc(N)c(C(=O)c2ccc(Cl)cc2)s1 | 47 |  | > 100 | > 100 | > 100 | 53.5 | 70.2 | 36.9 | > 100 | 70.6 |  |  |  |  |  |  |  |  |  | 
COc1cc(C2c3cc4c(cc3C(O)C3CCC(=O)N23)OCO4)cc(OC)c1OC (stereo not drawn) | > 100 | 89.9 | 76.7 | > 100 | > 100 |  | > 100 | > 100 | > 100 | 79.3 |  |  |  |  |  |  |  |  |  | 
COc1ccc2c(c1)OCC1(O)Cc3ccccc3OC21 (stereo not drawn) | > 100 | > 100 | > 100 | > 100 | > 100 |  | > 100 |  | > 100 | > 100 |  |  |  |  |  |  |  |  |  | 
Cc1cc2c(cc1-c1cc3c(cc1C)C(C(C)C)=C(O)C(=O)/C3=C\Nc1nc(-c3ccccc3)cs1)/C(=C/Nc1nc(-c3ccccc3)cs1)C(=O)C(O)=C2C(C)C | > 100 |  | 50.2 | 28.8 | > 100 | 54.5 | 57.2 | > 100 | 35.7 | 58.4 |  |  |  |  |  |  |  |  |  | 
Cc1ccc(S(=O)(=O)NC(=O)NC(Cc2c[nH]c3ccccc23)C(=O)O)cc1 (stereo not drawn) | > 100 | > 100 | > 100 | > 100 | > 100 | > 100 | > 100 | > 100 |  |  |  |  |  |  |  |  |  |  |  | 
CC1(C)CCC[C@]2(C)[C@@H]1CC[C@@]13O[C@@H]1C1=C(CO)C(=O)O[C@]14O[C@@H]4[C@@H]23 | 40.3 | 22 | 26.2 | 28.4 | 26.6 | 25.2 | 23.5 |  | 37.7 | 42.1 |  |  |  |  |  |  |  |  |  | 
COc1cc2c(cc1OC)C1CN3C(=O)CCC3C(O)C1c1cc(OC)c(OC)cc1-2 (stereo not drawn) | > 100 | > 100 | > 100 | > 100 | > 100 | > 100 | > 100 | > 100 | > 100 |  |  |  |  |  |  |  |  |  |  | 
